Experimental data published in PubChem BioAssay AID652143 (Broad Institute, 2013).
Inconclusive results are not listed. Activity calls are given as the source filed them. The rule behind the calls is not given here.

Experiments:
Assay in all cases: caspase 3/7 activation in multiple cell lines – Caspase-Glo 3/7 luminescence, multiple timepoints, mechanism study for HRAS target identification project, profiling panel (AID 652143)
SNB-19 = settings: Cell line panel, caspase 3/7 luminescence, 1/6/24 h
HT-29 = settings: Cell line panel, caspase 3/7 luminescence, 1/6/24 h, caspase 3/7 AC40, timepoint 2
U-251 = settings: Cell line panel, caspase 3/7 luminescence, 1/6/24 h
SR = settings: Cell line panel, caspase 3/7 luminescence, 1/6/24 h
LOX-IMVI = settings: Cell line panel, caspase 3/7 luminescence, 1/6/24 h, caspase 3/7 AC40, timepoint 3

## Cc1onc(C(=O)N2CCN(C(c3ccc(Cl)cc3)c3ccc(Cl)cc3)CC2)c1[N+](=O)[O-]
SNB-19
  outcome: inactive

## CC(C)(C)OC(=O)NCCOCCOCCOc1ccc(N(C(=O)CCl)C(C(=O)NCCc2ccccc2)c2cccs2)cc1Cl (stereo not given)
SNB-19
  AC40: > 35 µM (inactive)

## O=C(NCCOCCOCCOc1ccc(N(C(=O)CCl)C(C(=O)NCCc2ccccc2)c2cccs2)cc1Cl)c1ccc(COC2C#CCCCCC2)cc1 (stereo not given)
HT-29
  AC40: > 35 µM

## COc1ccc(N(C(=O)CCl)C(C(=O)NCCc2ccccc2)c2cccs2)cc1Cl (stereo not given)
U-251
  AC40: 14.7 µM
U-251; caspase 3/7 AC40, timepoint 2
  AC40: 1.45 µM
U-251; caspase 3/7 AC40, timepoint 3
  AC40: 0.948 µM
SR
  AC40: 22.2 µM
SR; caspase 3/7 AC40, timepoint 2
  AC40: 0.177 µM
SR; caspase 3/7 AC40, timepoint 3
  AC40: 0.551 µM

## CCC(=O)N(c1ccc(OC)c(Cl)c1)C(C(=O)NCCc1ccccc1)c1cccs1 (stereo not given)
U-251
  outcome: inactive
SNB-19
  outcome: inactive
LOX-IMVI
  AC40: > 35 µM

## Cc1onc(C(=O)N2CCN(C(c3ccc(Cl)cc3)c3ccc(OCCOCCOCCNC(=O)OC(C)(C)C)cc3)CC2)c1[N+](=O)[O-] (stereo not given)
SNB-19
  outcome: inactive

## CO[C@H]1C[C@@H]2CC[C@@H](C)[C@@](O)(O2)C(=O)C(=O)N2CCCC[C@H]2C(=O)O[C@H]([C@H](C)C[C@@H]2CC[C@@H](O)[C@H](OC)C2)CC(=O)[C@H](C)/C=C(\C)[C@@H](O)[C@@H](OC)C(=O)[C@H](C)C[C@H](C)/C=C/C=C/C=C/1C
SNB-19
  outcome: inactive
SNB-19; caspase 3/7 AC40, timepoint 2
  AC40: 35 µM
